Measured values from patent US20080319017A2, “Non-Anilinic Derivatives of Isothiazol-3(2H)-Thione 1,1-Dioxides As Liver X Receptor Modulators” (ASTRAZENECA AB, priority 2005, published 2008).
pEC50: −log10 of the molar value.

Target: T1, human LXRalpha (Homo sapiens, UniProt Q13133)
T1 construct: human LXRalpha (amino acid 205-447); expressed in transfected cells; host or cells: U2/OS osteosarcoma cells, electroporated with pSGGAL-LXRalpha (pSG5 backbone)
T1 sequence (Q13133 205-447): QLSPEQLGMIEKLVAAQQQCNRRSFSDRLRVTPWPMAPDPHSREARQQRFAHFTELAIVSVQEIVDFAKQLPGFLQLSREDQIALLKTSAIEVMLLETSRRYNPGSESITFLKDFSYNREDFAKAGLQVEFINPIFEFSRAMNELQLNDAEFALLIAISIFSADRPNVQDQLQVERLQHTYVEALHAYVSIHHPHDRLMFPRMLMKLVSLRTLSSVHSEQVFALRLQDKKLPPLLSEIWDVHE
Experiment: Transactivation assay (reporter gene assay), GAL4-LXRalpha LBD luciferase in U2/OS cells
Type: cell-based
Conditions: U2/OS osteosarcoma cells, 48 h incubation, read-out: EC50 for LXRα in the reporter gene assay
Experimental: Expression vectors were prepared by inserting the ligand binding domain cDNA (complementary DNA) of human LXRalpha (amino acid 205-447) and LXRbeta (amino acid 216-461) in frame with, 3′ to the yeast GAL4 transcription factor DNA binding domain and the nuclear localization signal from the T-antigen of Polyoma Virus in the eucaryotic expression vector pSG5 (Stratagene). The resulting expression vectors pSGGAL-LXRalpha and pSGGAL-LXRbeta were used in cotransfection experiments together with the pGL3 luciferase reporter plasmid containing a minimal SV40 promoter (Promega) and five copies of the UAS GAL4 recognition site. 2.5 μg pSGGAL-LXRalpha or beta were mixed with 25 μg pGL3 5×UAS and 22.5 μg pBluscript (Stratagene) in 0.95 mL ice cold PBS containing approx. 4-9 milj. U2/OS osteosarcoma cells. After a five minute incubation on ice the cell/DNA mixture was electroporated in 0.4 cm cuvettes at 960 μF, 230 V using a BioRad electroporator and diluted to 0.32 milj cells/mL in complete DMEM [Dulbecco's Modified Eagle Medium w/o phenol red, (Gibco 11880-028) including 10% FBS (Foetal Bovine Serum), 1% PEST (Penicillin Streptomycin), 20 mM Hepes, 2 mM L-Glutamine and 0.36% Glucose Gibco 31966-021] medium. […] Luciferase activity was measured as Luminescence in the Wallac Victor reader after 15 min. incubation at room temperature. […]

Row | pEC50 | SMILES
1 | 5.51 | CC(C)N1C(=S)C(NC2CCN(c3ncc(C(F)(F)F)cc3Cl)CC2)=C(c2ccccc2)S1(=O)=O [Example 1, 4-({1-[3-Chloro-5-(trifluoromethyl)pyridin-2-yl]piperidin-4-yl}amino)-2-isopropyl-5-phenylisothiazole-3(2H)-thione 1,1-dioxide]
2 | 4.98 | CC(C)N1C(=S)C(NCCCCc2ccccc2)=C(c2ccccc2)S1(=O)=O [Example 2, 2-Isopropyl-5-phenyl-4-[(4-phenylbutyl)amino]isothiazole-3(2H)-thione 1,1-dioxide]
